Results taken from ChEMBL document CHEMBL1144192, “Synthesis and activity of 1-(3-amino-1-phenylpropyl)indolin-2-ones: a new class of selective norepinephrine reuptake inhibitors” (Bioorg Med Chem Lett, 2008).

Legend:
[1] = molecular target: Sodium-dependent serotonin transporter (Homo sapiens, UniProt P31645); format: cell-based, JAR
Description: Inhibition of serotonin uptake at human SERT expressed in JAR cells

[2] = molecular target: Sodium-dependent dopamine transporter (Homo sapiens) (UniProt Q01959); test: Displacement of [3H]WIN-35428 from human recombinant DAT expressed in CHO cells at 1 uM; format: cell-based
Sodium-dependent dopamine transporter (Homo sapiens), sequence (Q01959 whole entry): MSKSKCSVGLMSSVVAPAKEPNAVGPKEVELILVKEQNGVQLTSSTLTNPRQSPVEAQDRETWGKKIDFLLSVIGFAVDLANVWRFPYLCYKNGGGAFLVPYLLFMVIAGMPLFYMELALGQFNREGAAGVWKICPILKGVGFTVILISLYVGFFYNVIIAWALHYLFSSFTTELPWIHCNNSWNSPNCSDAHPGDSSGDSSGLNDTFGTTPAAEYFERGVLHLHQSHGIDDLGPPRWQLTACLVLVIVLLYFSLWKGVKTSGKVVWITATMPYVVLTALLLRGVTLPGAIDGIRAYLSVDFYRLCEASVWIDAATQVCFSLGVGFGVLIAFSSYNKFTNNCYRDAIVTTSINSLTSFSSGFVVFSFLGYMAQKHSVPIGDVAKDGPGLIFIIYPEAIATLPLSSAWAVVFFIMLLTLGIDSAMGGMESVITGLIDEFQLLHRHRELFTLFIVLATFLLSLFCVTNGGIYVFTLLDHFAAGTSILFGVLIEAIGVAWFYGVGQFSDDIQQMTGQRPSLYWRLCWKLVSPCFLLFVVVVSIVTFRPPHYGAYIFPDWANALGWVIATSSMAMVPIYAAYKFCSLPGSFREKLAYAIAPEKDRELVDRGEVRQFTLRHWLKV

[3] = molecular target: Sodium-dependent noradrenaline transporter (Homo sapiens, UniProt P23975)
Sodium-dependent noradrenaline transporter, sequence (P23975 whole entry): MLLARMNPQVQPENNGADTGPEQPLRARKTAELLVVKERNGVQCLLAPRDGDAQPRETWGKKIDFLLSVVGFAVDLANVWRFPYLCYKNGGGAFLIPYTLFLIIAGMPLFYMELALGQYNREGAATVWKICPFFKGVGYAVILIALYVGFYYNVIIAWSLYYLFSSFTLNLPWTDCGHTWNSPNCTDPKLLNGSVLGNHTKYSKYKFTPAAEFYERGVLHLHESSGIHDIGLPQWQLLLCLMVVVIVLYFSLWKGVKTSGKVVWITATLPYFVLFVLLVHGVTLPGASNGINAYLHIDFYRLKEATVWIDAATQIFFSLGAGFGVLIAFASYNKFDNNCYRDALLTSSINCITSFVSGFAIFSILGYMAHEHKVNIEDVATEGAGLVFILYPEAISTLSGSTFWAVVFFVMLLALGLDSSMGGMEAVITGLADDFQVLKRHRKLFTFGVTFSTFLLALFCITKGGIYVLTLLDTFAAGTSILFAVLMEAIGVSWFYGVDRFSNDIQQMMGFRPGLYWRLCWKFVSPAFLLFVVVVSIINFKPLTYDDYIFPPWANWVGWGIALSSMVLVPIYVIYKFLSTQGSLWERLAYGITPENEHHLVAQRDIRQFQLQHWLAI
Description: Inhibition of norepinephrine uptake at human NET expressed in MDCK cells

Sodium-dependent serotonin transporter, sequence (P31645 whole entry): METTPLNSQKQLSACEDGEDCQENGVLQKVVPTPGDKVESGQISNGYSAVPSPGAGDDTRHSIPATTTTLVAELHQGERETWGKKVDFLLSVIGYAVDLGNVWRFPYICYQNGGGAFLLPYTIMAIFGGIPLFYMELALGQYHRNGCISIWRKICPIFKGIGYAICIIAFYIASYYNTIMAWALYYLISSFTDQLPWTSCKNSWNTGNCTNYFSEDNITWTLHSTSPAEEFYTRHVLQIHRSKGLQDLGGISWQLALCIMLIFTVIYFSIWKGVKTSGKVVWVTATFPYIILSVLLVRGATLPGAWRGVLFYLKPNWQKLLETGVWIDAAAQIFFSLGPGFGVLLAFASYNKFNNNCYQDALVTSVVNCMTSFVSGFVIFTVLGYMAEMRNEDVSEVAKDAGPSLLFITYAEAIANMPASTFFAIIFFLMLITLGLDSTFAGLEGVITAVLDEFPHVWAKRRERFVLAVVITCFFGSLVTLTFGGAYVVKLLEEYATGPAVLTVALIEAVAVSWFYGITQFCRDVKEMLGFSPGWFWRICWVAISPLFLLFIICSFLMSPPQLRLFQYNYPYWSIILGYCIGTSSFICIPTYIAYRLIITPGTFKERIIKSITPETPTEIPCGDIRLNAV

Row | Structure (SMILES) | IC50 [1] | Activity [2] | IC50 [3]
1 | CNCC[C@H](c1cccc(F)c1)N1C(=O)C2(CCCCC2)c2ccccc21 | > 3000 nM | 20% | 26 nM
2 | CNCC[C@@H](c1ccccc1)N1C(=O)C2(CCCCC2)c2ccccc21 | 1750 nM | 0% | > 3000 nM
3 | CNCC[C@@H](c1ccccc1)N1C(=O)C(C)(C)c2ccccc21 | 1950 nM | 3% | > 3000 nM
4 | CNCCC(Oc1ccccc1OC)c1ccccc1 (configuration not stated) [NISOXETINE] | 277 nM | – | –
5 | CNCC[C@@H](c1cccc(F)c1)N1C(=O)C2(CCCCC2)c2ccccc21 | 1150 nM | 1% | > 3000 nM
6 | CNCC[C@H](c1ccccc1)N1C(=O)C(C)(C)c2ccccc21 | 1350 nM | 0% | 7 nM
7 | CNCC[C@H](c1ccccc1)N1C(=O)C2(CCCCC2)c2ccccc21 | > 3000 nM | 26% | 53 nM
8 | CNCCC(c1ccccc1)n1ccc2ccccc21 (configuration not stated) | 327 nM | 44% | 47 nM

The next lines start with the values.

Row | IC50 [1] | Activity [2] | IC50 [3] | Structure (SMILES)
9 | > 3000 nM | 0% | 19 nM | CNCC[C@H](c1cc(F)cc(Cl)c1)N1C(=O)C(C)(C)c2cccc(F)c21
10 | 330 nM | 0% | 6 nM | CNCC[C@H](c1cc(F)cc(F)c1)N1C(=O)C(C)(C)c2cccc(F)c21
11 | 290 nM | 10% | 7 nM | CNCC[C@H](c1cccc(Cl)c1)N1C(=O)C(C)(C)c2cccc(F)c21
12 | > 3000 nM | 3% | 175 nM | CNCC[C@H](c1ccccc1)N1C(=O)C(C)(C)c2cccc(F)c21
13 | 2550 nM | 7% | 14 nM | CNCC[C@H](c1cccc(F)c1)N1C(=O)C(C)(C)c2cccc(F)c21
